Data from patent publication US20250092052A1, “HETEROARYL DERIVATIVE COMPOUNDS, AND USES THEREOF” (VORONOI INC., priority 2023, published 2025).

What was measured:
Myt1-KD = Myt1-KD (Homo sapiens (Human), UniProt Q99640); assay: Thermal Shift Assay, compound binding to Myt1-KD; details: 2 μM protein, 100 μM compound, Tm of compound minus Tm of DMSO
Method: The degree of compound binding to Myt1-KD was tested using a Thermal Shift Assay. Each protein was diluted to a concentration of 2 μM in 50 mM Tris (pH 7.5) with 100 μM of the compound. SYPRO™ Orange dye was added to the solution, and the plate was transferred to a QuantStudio3 Real-Time PCR System (Applied Biosystems by Thermo Fisher Scientific). […] The degree of protein melting in the presence of the compound compared to DMSO was calculated according to the following Equation 1. ΔTm=Tm (Temperature of Example compound)−Tm (Temperature of DMSO) [Equation 1]

human PKMYT1 enzyme = human PKMYT1 enzyme (Homo sapiens (Human), UniProt Q99640); assay: Inhibitory activity against PKMYT1 kinase (ADP-Glo kinase assay); type: biochemical; details: purified human PKMYT1, ATP, CDK1 substrate, 25° C., 1 hour
Method: To evaluate the inhibitory activity of the compounds synthesized according to the above Examples against PKMYT1 kinase, the Example compounds were reacted with purified human PKMYT1 enzyme and assessed using the following method.
The reaction buffer was used as a composition of 200 mM Tris-HCl pH 7.4, 100 mM MgCl2, 0.5 mg/mL BSA, 0.25 mM DTT, and the reactions of all the tests were carried out on the reaction buffer.
The compound was diluted in 12 steps using a serial dilution method from a 10 mM DMSO stock, and the enzyme activity was measured at a final compound concentration of 10˜0.00005645 μM. During the test, the enzyme activity was confirmed using in vitro ADP-Glo™kinase assay (Promega) after reacting with the proper concentration of PKMYT1 enzyme, purified ATP, and enzyme substrate (CDK1) at 25° C. for 1 hour. At a ratio of 2:2:1, an enzyme-active reaction solution, an ADP-Glo reaction solution, and an enzyme-active detection solution were reacted to measure the inhibition of the enzyme's activity with luminescence. Based on the […] of the enzyme activity of the solvent control that was not treated with the compound, the degree of enzyme activity inhibition was calculated according to the treatment concentration of each compound, and the concentration of each compound that inhibits 50% of enzyme activity was determined as IC50 (nM) value and the value was obtained by using GraphPad Prism 8.3.0 (GraphPad software Inc., San Diego) software.

Chain of human PKMYT1 enzyme (Q99640 whole entry): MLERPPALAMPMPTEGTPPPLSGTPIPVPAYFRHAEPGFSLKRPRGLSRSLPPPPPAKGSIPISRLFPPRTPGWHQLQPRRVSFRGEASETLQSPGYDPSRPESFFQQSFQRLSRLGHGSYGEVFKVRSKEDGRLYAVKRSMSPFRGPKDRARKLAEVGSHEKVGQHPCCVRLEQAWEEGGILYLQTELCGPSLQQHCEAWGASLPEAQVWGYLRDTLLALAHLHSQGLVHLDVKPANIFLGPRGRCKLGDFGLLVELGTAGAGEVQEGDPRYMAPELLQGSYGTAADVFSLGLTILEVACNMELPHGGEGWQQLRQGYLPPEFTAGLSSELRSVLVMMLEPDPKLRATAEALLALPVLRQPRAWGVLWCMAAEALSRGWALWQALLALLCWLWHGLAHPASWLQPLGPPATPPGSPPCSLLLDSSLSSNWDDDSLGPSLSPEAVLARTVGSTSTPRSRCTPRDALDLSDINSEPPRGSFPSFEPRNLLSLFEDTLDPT
Chain of Myt1-KD (Q99640 110-359): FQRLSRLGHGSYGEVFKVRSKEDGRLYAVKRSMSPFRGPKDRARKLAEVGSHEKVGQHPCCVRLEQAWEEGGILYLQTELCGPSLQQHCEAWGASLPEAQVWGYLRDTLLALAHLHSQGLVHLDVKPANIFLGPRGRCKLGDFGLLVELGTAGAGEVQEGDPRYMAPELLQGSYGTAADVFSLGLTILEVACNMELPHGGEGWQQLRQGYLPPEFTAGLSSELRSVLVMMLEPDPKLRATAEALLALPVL

Structure (SMILES) | ΔTm at 100 µM (Myt1-KD) [°C] | IC50 (human PKMYT1 enzyme) [nM] | ΔTm (° C.) (Myt1-KD)
Cc1ccc(O)c(C)c1-n1c(N)c(C(=O)c2cc3cc(CN4CCOCC4)ccc3[nH]2)c2nccnc21 (atropisomer, axis not shown) [Example 19, (S)-(6-amino-5-(3-hydroxy-2,6-dimethylphenyl)-5H-pyrrolo[2,3-b]pyrazin-7-yl)(5-(morpholinomethyl)-1H-indol-2-yl)methanone] | ≥ 5 | ≤ 200 | 
Cc1ccc(O)c(C)c1-n1c(N)c(C(=O)c2cc3cc(N4CCN(C)CC4)ccc3[nH]2)c2nccnc21 (atropisomer, axis not shown) [Example 22, (R)-(6-amino-5-(3-hydroxy-2,6-dimethylphenyl)-5H-pyrrolo[2,3-b]pyrazin-7-yl)(5-(4-methylpiperazin-1-yl)-1H-indol-2-yl)methanone] |  | ≤ 200 | A (ΔTm (° C.) ≥ 5° C.)
Cc1ccc(O)c(C)c1-n1c(N)c(C(=O)c2cc3ccncc3[nH]2)c2nccnc21 (atropisomer, axis not shown) [Example 24, (S)-(6-amino-5-(3-hydroxy-2,6-dimethylphenyl)-5H-pyrrolo[2,3-b]pyrazin-7-yl)(1H-pyrrolo[2,3-c]pyridin-2-yl)methanone] | ≤ 5 |  | 
Cc1ccc(O)c(C)c1-n1c(N)c(C(=O)c2cc3ccncc3[nH]2)c2nccnc21 (atropisomer, axis not shown) [Example 25, (R)-(6-amino-5-(3-hydroxy-2,6-dimethylphenyl)-5H-pyrrolo[2,3-b]pyrazin-7-yl)(1H-pyrrolo[2,3-c]pyridin-2-yl)methanone] |  | ≤ 200 | A (ΔTm (° C.) ≥ 5° C.)
Cc1ccc(O)c(C)c1-n1c(N)c(C(=O)c2cc3ncccc3[nH]2)c2nccnc21 (atropisomer, axis not shown) [Example 26, (S)-(6-amino-5-(3-hydroxy-2,6-dimethylphenyl)-5H-pyrrolo[2,3-b]pyrazin-7-yl)(1H-pyrrolo[3,2-b]pyridin-2-yl)methanone] | ≥ 5 |  | 
Cc1ccc(O)c(C)c1-n1c(N)c(C(=O)c2cc3ncccc3[nH]2)c2nccnc21 (atropisomer, axis not shown) [Example 27, (R)-(6-amino-5-(3-hydroxy-2,6-dimethylphenyl)-5H-pyrrolo[2,3-b]pyrazin-7-yl)(1H-pyrrolo[3,2-b]pyridin-2-yl)methanone] |  |  | B (5 °C ≥ ΔTm (° C.))
Cc1ccc(O)c(C)c1-n1c(N)c(C(=O)c2cc3ccccc3[nH]2)c2nccnc21 (single isomer, unassigned) [Example 1] | ≥ 5 | ≤ 200 | 
Cc1ccc(O)c(C)c1-n1c(N)c(C(=O)c2nc3ccccc3[nH]2)c2cccnc21 [Example 3, (S)-(2-amino-1-(3-hydroxy-2,6-dimethylphenyl)-1H-pyrrolo[2,3-b]pyridin-3-yl)(1H-benzo[d]imidazol-2-yl)methanone] |  | ≤ 200 | A (ΔTm (° C.) ≥ 5° C.)
Cc1ccc(O)c(C)c1-n1c(N)c(C(=O)c2cc3sccc3[nH]2)c2nc(C)c(C)nc21 [Example 13, (S)-(6-amino-5-(3-hydroxy-2,6-dimethylphenyl)-2,3-dimethyl-5H-pyrrolo[2,3-b]pyrazin-7-yl)(4H-thieno[3,2-b]pyrrol-5-yl)methanone] |  | ≤ 200 | A (ΔTm (° C.) ≥ 5° C.)
Cc1ccc(O)c(C)c1-n1c(N)c(C(=O)c2cc3sccc3[nH]2)c2nc(C)c(C)nc21 [Example 14, (R)-(6-amino-5-(3-hydroxy-2,6-dimethylphenyl)-2,3-dimethyl-5H-pyrrolo[2,3-b]pyrazin-7-yl)(4H-thieno[3,2-b]pyrrol-5-yl)methanone] |  |  | B (5 °C ≥ ΔTm (° C.))
Cc1ccc(O)c(C)c1-n1c(N)c(C(=O)c2ccc[nH]2)c2nccnc21 [Example 23, (6-amino-5-(3-hydroxy-2,6-dimethylphenyl)-5H-pyrrolo[2,3-b]pyrazin-7-yl)(1H-pyrrol-2-yl)methanone] | ≤ 5 | ≤ 200 | 
Cc1ccc(O)c(C)c1-n1c(N)c(C(=O)c2cc3cc(P(C)(C)=O)ccc3[nH]2)c2nccnc21 [Example 40, (6-amino-5-(3-hydroxy-2,6-dimethylphenyl)-5H-pyrrolo[2,3-b]pyrazin-7-yl)(5-(dimethylphosphoryl)-1H-indol-2-yl)methanone] | ≥ 5 |  | 

More lines, now with the values ahead:

ΔTm at 100 µM (Myt1-KD) [°C] | IC50 (human PKMYT1 enzyme) [nM] | ΔTm (° C.) (Myt1-KD) | Structure (SMILES)
≥ 5 | ≤ 200 |  | Cc1ccc(O)c(C)c1-n1c(N)c(C(=O)c2cc3sccc3[nH]2)c2nccnc21 (atropisomer, axis not shown) [Example 5, (S)-(6-amino-5-(3-hydroxy-2,6-dimethylphenyl)-5H-pyrrolo[2,3-b]pyrazin-7-yl)(4H-thieno[3,2-b]pyrrol-5-yl)methanone]
≥ 5 | ≤ 200 |  | Cc1ccc(O)c(C)c1-n1c(N)c(C(=O)c2cc3occc3[nH]2)c2nccnc21 (atropisomer, axis not shown) [Example 7, (S)-(6-amino-5-(3-hydroxy-2,6-dimethylphenyl)-5H-pyrrolo[2,3-b]pyrazin-7-yl)(4H-furo[3,2-b]pyrrol-5-yl)methanone]
≥ 5 | 200 to 500 |  | Cc1ccc(O)c(C)c1-n1c(N)c(C(=O)c2cc3ccccc3[nH]2)c2nc(C)c(C)nc21 (atropisomer, axis not shown) [Example 9, (S)-(6-amino-5-(3-hydroxy-2,6-dimethylphenyl)-2,3-dimethyl-5H-pyrrolo[2,3-b]pyrazin-7-yl)(1H-indol-2-yl)methanone]
≥ 5 | ≤ 200 |  | Cc1ccc(O)c(C)c1-n1c(N)c(C(=O)c2cc3cnc(N4CCOCC4)cc3[nH]2)c2nc(C)c(C)nc21 (atropisomer, axis not shown) [Example 15, (S)-(6-amino-5-(3-hydroxy-2,6-dimethylphenyl)-2,3-dimethyl-5H-pyrrolo[2,3-b]pyrazin-7-yl)(6-morpholino-1H-pyrrolo[3,2-c]pyridin-2-yl)methanone]
 | ≤ 200 | A (ΔTm (° C.) ≥ 5° C.) | Cc1ccc(O)c(C)c1-n1c(N)c(C(=O)c2cc3occc3[nH]2)c2nc(C)c(C)nc21 (atropisomer, axis not shown) [Example 18, (R)-(6-amino-5-(3-hydroxy-2,6-dimethylphenyl)-2,3-dimethyl-5H-pyrrolo[2,3-b]pyrazin-7-yl)(4H-furo[3,2-b]pyrrol-5-yl)methanone]
